Each block holds one compound with its values, some of them ahead of it.
Biological target: MAPK14 (human) (UniProt Q16539)
Experiment: Assessment of MAPK14 Kinase Activity

Chain of MAPK14 (human) (Q16539 whole entry, looked up): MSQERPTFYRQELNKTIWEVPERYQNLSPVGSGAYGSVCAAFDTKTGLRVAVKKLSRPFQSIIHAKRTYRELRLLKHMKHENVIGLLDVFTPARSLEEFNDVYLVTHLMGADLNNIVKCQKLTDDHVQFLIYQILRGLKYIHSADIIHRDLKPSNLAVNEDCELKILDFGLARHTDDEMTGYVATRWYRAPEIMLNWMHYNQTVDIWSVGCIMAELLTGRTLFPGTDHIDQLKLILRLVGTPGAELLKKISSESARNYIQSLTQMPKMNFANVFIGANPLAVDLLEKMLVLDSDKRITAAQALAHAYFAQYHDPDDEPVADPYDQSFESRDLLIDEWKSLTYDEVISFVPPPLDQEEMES

SMILES: Fc1ccc(Cl)c(-c2nc3occn3c2-c2ccnc(N[C@@H]3CN4CCC3CC4)n2)c1
IC50: 6.8 nM

SMILES: Cc1ccc(-c2nc3sccn3c2-c2ccnc(S(C)(=O)=O)n2)cc1
IC50: 10000 nM

SMILES: Fc1ccc(-c2nc3sccn3c2-c2ccnc(N3CCCCC3)n2)cc1
IC50: 527 nM

SMILES: CS(=O)(=O)c1nccc(-c2c(-c3ccc(F)c(F)c3)nc3sccn23)n1
IC50: 10000 nM

SMILES: COc1cccc(-c2nc3sccn3c2-c2nc(SC)ncc2-c2ccccc2)c1
IC50: > 10000 nM

SMILES: COc1cccc(-c2nc3sccn3c2-c2ccnc(S(C)(=O)=O)n2)c1
IC50: 10000 nM

SMILES: CCCCCOc1nccc(-c2c(-c3ccc(F)cc3)nc3sccn23)n1
IC50: 890 nM

The remaining compounds from weak to strong by IC50, led by results:

IC50: 87.1 nM
SMILES: OCCC(CO)Nc1nccc(-c2c(-c3ccc(F)cc3)nc3sccn23)n1 (configuration not stated)

IC50: 37.1 nM
SMILES: C[C@@H](O)CNc1nccc(-c2c(-c3ccc(F)cc3)nc3occn23)n1

IC50: 34.8 nM
SMILES: C[C@@H](CO)Nc1nccc(-c2c(-c3ccc(F)cc3)nc3occn23)n1

IC50: 8.96 nM
SMILES: O[C@@H](CNc1nccc(-c2c(-c3ccc(F)cc3)nc3occn23)n1)c1ccccc1

IC50: 7.26 nM
SMILES: CC(C)(C)OC(=O)N1CCC[C@H]1CNc1nccc(-c2c(-c3ccc(F)cc3)nc3sccn23)n1
